Laboratory results reported in patent US10774082B2, “Quinazoline compound” (Astellas Pharma Inc., priority 2017, dated 2020).
pIC50: −log10 of the molar value. Where two headings read alike, the source gives them in different places.

Tests used:
[1] = system: ERK phosphorylation (Thr 202/Tyr 204) in NCI-H1373 cells; test: ERK phosphorylation inhibitory action in NCI-H1373 (Cell ELISA); format: cell-based, Human; settings: read-out: IC50 (ERK phosphorylation inhibition)
How it was run: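 KRAS G12C NCI-H1373 cells (2×10^4/well) were treated with compound (six points, 1,000–0.3 nM final) for 2 h. Phospho-ERK Thr202/Tyr204 was measured by in-cell ELISA with an IRDye 800CW secondary antibody. IC50 was fitted by sigmoid-Emax regression against DMSO (0%) and 1 μM trametinib (100%).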

NCI-H1373 cells = test: Anchorage-independent cell proliferation inhibitory action, NCI-H1373 spheroid three-dimensional culture; format: cell-based, Human; settings: read-out: IC50 (anchorage-independent cell proliferation inhibition)
How it was run: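 KRAS G12C NCI-H1373 cells were grown as spheroids in low-attachment U-bottom wells and treated the next day with compound, six points from 1,000 to 0.3 nM final. After six days at 37°C, viability was read by CellTiter-Glo luminescence. IC50 was fitted by Sigmoid-Emax regression, with DMSO set as 0% and cell-free medium as 100% inhibition.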

[2] = Homo sapiens, NCI-H1373, 2 h, NCI-H1373 cells, cultured for 2 hours, 100% = 1 μM Trametinib
[3] = Homo sapiens, NCI-H1373, 144 h, NCI-H1373 spheroid, six days, CellTiter Glo
[4] = NCI-H1373 cells, cultured for 2 hours, 100% = 1 μM Trametinib
[5] = NCI-H1373 spheroid, six days, CellTiter Glo

| Structure (SMILES) | pIC50 [1, 2] | pIC50 (NCI-H1373 cells; [3]) | also measured |
| --- | --- | --- | --- |
| C=CC(=O)N1CC2(CCN(c3nc(OC4CCN(C)CC4)nc4c(OCC)c(-c5c(C)ccc6[nH]ncc56)c(C5CC5)cc34)CC2)C1 [Ex 2] | 8.36 | 8.21 | – |
| C=CC(=O)N1CC2(CCN(c3nc(OC4CCN(CC(C)(C)O)CC4)nc4c(OCC(F)(F)F)c(-c5c(C)ccc6[nH]ncc56)c(C=C)cc34)CC2)C1 [Example 40] | – | – | pIC50 [1, 4]: 8.51; pIC50 (NCI-H1373 cells; [5]): 8.29 |
| C=CC(=O)N1CC2(CCN(c3nc(OC4CCN(C5COC5)CC4)nc4c(OCC)c(-c5c(C)ccc6[nH]ncc56)c(C5CC5)cc34)CC2)C1 [Example 34] | 8.24 | 8.12 | – |
| C=CC(=O)N1CC2(CCN(c3nc(OC4CCN(C5COC5)CC4)nc4c(OCC(F)(F)F)c(-c5c(C)ccc6[nH]ncc56)c(C=C)cc34)CC2)C1 [Example 33] | 8.34 | 8.06 | – |
| C=CC(=O)N1CC2(CCN(c3nc(N4CC(N(C)C)C4)nc4c(OCC(F)(F)F)c(-c5c(C)ccc6[nH]ncc56)c(C=C)cc34)CC2)C1 [Example 65] | 8.03 | 7.57 | – |
| C=CC(=O)N1CC2(CCN(c3nc(OC4CCN(C5CCOCC5)CC4)nc4c(OCC(F)(F)F)c(-c5c(C)ccc6[nH]ncc56)c(C=C)cc34)CC2)C1 [Ex 30] | 8.51 | 8.27 | – |
| C=CC(=O)N1CC2(CCN(c3nc(OC4CCN(CCOC)CC4)nc4c(OCC(F)(F)F)c(-c5c(C)ccc6[nH]ncc56)c(C5CC5)cc34)CC2)C1 [Example 35] | – | – | pIC50 [1, 4]: 8.60; pIC50 (NCI-H1373 cells; [5]): 8.60 |
| C=CC(=O)N1CC2(CCN(c3nc(OC4CCN(CCOC)CC4)nc4c(OCC(F)(F)F)c(-c5c(C)ccc6[nH]ncc56)c(C=C)cc34)CC2)C1 [Ex 26] | 8.48 | – | – |
| C=CC(=O)N1CC2(CCN(c3nc(OC4CCN(CC)CC4)nc4c(OCC)c(-c5c(C)ccc6[nH]ncc56)c(C=C)cc34)CC2)C1 [Ex 7] | 8.06 | 7.96 | – |
| C=CC(=O)N1CC2(CCN(c3nc(OC[C@@H]4CCCN4C)nc4c(OCC(F)F)c(-c5c(C)ccc6[nH]ncc56)c(C5CC5)cc34)CC2)C1 [Ex 4] | 8.54 | 8.47 | – |
| C=CC(=O)N1CC2(CCN(c3nc(OC4CCN(C)CC4F)nc4c(OCC(F)(F)F)c(-c5c(C)ccc6[nH]ncc56)c(C=C)cc34)CC2)C1 (stereo not drawn) [Example 52] | 8.17 | 7.80 | – |
| C=CC(=O)N1CC2(CCN(c3nc(OC4CCN(CCOCC)CC4)nc4c(OCC(F)(F)F)c(-c5c(C)ccc6[nH]ncc56)c(C=C)cc34)CC2)C1 [Example 37] | – | – | pIC50 [1, 4]: 8.60; pIC50 (NCI-H1373 cells; [5]): 8.06 |
| C=CC(=O)N1CCN(c2nc(OC3CCN(C)CC3)nc3c(F)c(-c4c(C)ccc5[nH]ncc45)c(Cl)cc23)CC1 [Compound C, reference compound] | 6.68 | 6.49 | – |
| C=CC(=O)N1CC2(CCN(c3nc(OC4CCN(C)CC4)nc4c(OCC)c(-c5c(C)ccc6[nH]ncc56)c(C=C)cc34)CC2)C1 [Ex 24] | 8.43 | 8.21 | – |
| C=CC(=O)N1CC2(CCN(c3nc(OC4CCN(C)CC4)nc4c(OCC(F)F)c(-c5c(C)ccc6[nH]ncc56)c(C5CC5)cc34)CC2)C1 [Ex 3] | 8.48 | 8.33 | – |
| C=CC(=O)N1CC2(CCN(c3nc(OC4CCN(CCOC)CC4)nc4c(OCC(F)F)c(-c5c(C)ccc6[nH]ncc56)c(C5CC5)cc34)CC2)C1 [Example 32] | 8.24 | 8.15 | – |
| C=CC(=O)N1CC2(CCN(c3nc(OC4CCN(C5CCOCC5)CC4)nc4c(OCC(F)(F)F)c(-c5c(C)ccc6[nH]ncc56)c(C=C)cc34)CC2)C1 (single isomer, unassigned) [Ex 39] | 8.52 | 8.37 | – |
| C=CC(=O)N1CC2(CCN(c3nc(OC4CCN(Cc5ccccn5)CC4)nc4c(OCC(F)(F)F)c(-c5c(C)ccc6[nH]ncc56)c(C=C)cc34)CC2)C1 [Example 56] | 8.11 | 7.68 | – |
| C=CC(=O)N1CC2(CCN(c3nc(OC4CCN(CCCOC)CC4)nc4c(OCC(F)(F)F)c(-c5c(C)ccc6[nH]ncc56)c(C5CC5)cc34)CC2)C1 [Ex 28] | 8.46 | – | – |
| C=CC(=O)N1CC2(CCN(c3nc(N4CCN(C)CC4)nc4c(OCC(F)(F)F)c(-c5c(C)ccc6[nH]ncc56)c(C=C)cc34)CC2)C1 [Example 50] | 8.19 | 7.80 | – |
| C=CC(=O)N1CC2(CCN(c3nc(OC4CCN(CCOC)CC4)nc4c(OCC(F)(F)F)c(-c5c(C)ccc6[nH]ncc56)c(C5CC5)cc34)CC2)C1 [Ex 25] | 8.60 | – | – |
| C=CC(=O)N1CC2(CCN(c3nc(OC[C@@H]4CCCN4C)nc4c(OCC)c(-c5c(C)ccc6[nH]ncc56)c(C=C)cc34)CC2)C1 [Example 16] | – | – | pIC50 ([1]; Homo sapiens, NCI-H1373, 2 h): 8.04; pIC50 (NCI-H1373 cells; Homo sapiens, NCI-H1373, 144 h): 8.00 |
| C=CC(=O)N1CC2(CCN(c3nc(OC[C@@H]4CCCN4C)nc4c(OC5CCC5)c(-c5c(C)ccc6[nH]ncc56)c(C=C)cc34)CC2)C1 [Example 15] | – | – | pIC50 ([1]; Homo sapiens, NCI-H1373, 2 h): 7.96; pIC50 (NCI-H1373 cells; Homo sapiens, NCI-H1373, 144 h): 7.85 |
| C=CC(=O)N1CC2(CCN(c3nc(OC4CCN(CCOCC)CC4)nc4c(OCC(F)(F)F)c(-c5c(C)ccc6[nH]ncc56)c(C=C)cc34)CC2)C1 [Example 29] | 8.38 | 8.00 | – |
